Tests used:
[1] = biological target: T1, heme-free soluble guanylate cyclase (Bos taurus, UniProt P16068); experiment: Activation of heme-free soluble guanylate cyclase; format: biochemical, bovine
T1 sequence (P16068 1-619): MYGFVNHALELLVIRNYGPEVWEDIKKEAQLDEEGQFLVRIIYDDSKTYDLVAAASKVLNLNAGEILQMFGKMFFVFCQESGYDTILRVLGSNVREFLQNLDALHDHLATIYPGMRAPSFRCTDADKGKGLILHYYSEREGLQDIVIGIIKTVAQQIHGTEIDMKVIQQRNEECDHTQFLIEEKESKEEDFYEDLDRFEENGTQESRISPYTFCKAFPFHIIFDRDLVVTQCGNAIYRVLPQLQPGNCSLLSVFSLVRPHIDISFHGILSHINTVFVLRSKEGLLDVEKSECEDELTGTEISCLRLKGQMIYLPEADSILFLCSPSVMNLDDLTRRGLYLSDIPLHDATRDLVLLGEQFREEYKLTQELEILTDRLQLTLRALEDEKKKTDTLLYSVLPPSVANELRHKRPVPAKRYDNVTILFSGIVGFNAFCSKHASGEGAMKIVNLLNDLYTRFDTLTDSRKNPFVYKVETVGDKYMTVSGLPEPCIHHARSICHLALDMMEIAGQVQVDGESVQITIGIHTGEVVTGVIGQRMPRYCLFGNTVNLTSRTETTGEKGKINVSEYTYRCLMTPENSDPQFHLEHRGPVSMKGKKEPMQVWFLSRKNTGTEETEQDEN
T1 sequence (P19687 1-691 partner): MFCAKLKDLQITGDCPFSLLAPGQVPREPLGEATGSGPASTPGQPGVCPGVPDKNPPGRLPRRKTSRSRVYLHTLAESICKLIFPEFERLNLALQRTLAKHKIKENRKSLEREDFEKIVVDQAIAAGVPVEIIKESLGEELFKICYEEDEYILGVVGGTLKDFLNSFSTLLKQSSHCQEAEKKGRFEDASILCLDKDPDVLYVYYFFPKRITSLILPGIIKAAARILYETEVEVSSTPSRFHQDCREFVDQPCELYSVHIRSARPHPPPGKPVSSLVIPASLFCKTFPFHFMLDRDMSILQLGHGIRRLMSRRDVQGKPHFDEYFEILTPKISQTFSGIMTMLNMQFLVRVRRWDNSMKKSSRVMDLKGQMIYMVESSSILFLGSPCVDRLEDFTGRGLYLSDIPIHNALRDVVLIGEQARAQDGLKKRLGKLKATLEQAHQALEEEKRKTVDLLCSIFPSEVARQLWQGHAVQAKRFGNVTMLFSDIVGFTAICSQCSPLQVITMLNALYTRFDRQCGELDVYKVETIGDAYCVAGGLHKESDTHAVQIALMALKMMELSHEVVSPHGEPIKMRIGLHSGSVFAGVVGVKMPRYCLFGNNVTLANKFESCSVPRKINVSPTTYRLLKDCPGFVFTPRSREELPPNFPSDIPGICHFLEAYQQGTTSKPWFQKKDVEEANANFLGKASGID
Description: (§1) Soluble guanylate cyclase (sGC) catalyzes the conversion of GTP into cGMP and pyrophosphate. In the presence of nicotinamide adenine dinucleotide (NAD^+) and nicotinamide mononucleotide adenylyltransferase (NAT, EC 2.7.7.1), pyrophosphate is converted into ATP and nicotinamide mononucleotide. The ATP formed can be quantified luminometrically with the aid of a luciferase in microtiter plates.
(§2) The substance to be investigated is dissolved in DMSO and diluted with DMSO/water to a final concentration of 50 μM in the assay mixture. The DMSO concentration in the assay mixture should not exceed 5% (v/v).
(§3) 100 μl of reaction mixture should contain 50 mM TEA buffer (pH 7.4), 3 mM MgCl2, 3 mM GSH, 0.1 mM GTP, 1 mM IBMX (isobutylmethylxanthine), 0.2 mM NAD^+, 0.4 mU of NAT, suitably diluted sGC enzyme solution (isolated from bovine lung as described by P. Humbert et al., Methods of Enzymology 195, 384-391 (1991)) and the test substance or solvent (for determining the basal enzyme activity). The reaction is started by adding the sGC. The reaction mixture is incubated at room temperature for 60 min and then stopped by cooling in ice and adding 50 mM EDTA, pH 8.0. […] The relative luminescence units (RLU) can be measured in a microtiter plate luminometer.
(§4) The sGC activity is obtained after subtracting the blank RLU (incubation without enzyme) from the measured RLU. […]

[2] = biological target: T2, soluble guanylate cyclase with a trivalent heme iron (Bos taurus, UniProt P16068); experiment: Activation of soluble guanylate cyclase after oxidation of the heme iron (enzyme stored at 4° C. for about 7 days); format: biochemical, bovine; settings: sGC with trivalent heme iron, prepared by storing freshly prepared enzyme at 4° C. for about 7 days
T2 construct: suitably diluted sGC enzyme solution (isolated from bovine lung); from tissue; host or cells: bovine lung
T2 sequence (P16068 1-619): T1 sequence (P16068 1-619)
T2 sequence (P19687 1-691 partner): T1 sequence (P19687 1-691 partner)
Description: as §1, §2, §3, §4

stimulation of the activity [1]: 58.2 fold
EC50 ([1]; read-out: affinity): 2400 nM
EC50 [2]: 500 nM
stimulation of the activity [2]: 17.6 fold
SMILES: COc1cc(NS(=O)(=O)c2ccc(Cl)cc2)c(C(=O)Nc2ccc(S(=O)(=O)N3CCSCC3)cc2)cc1OC [2-(4-chlorophenylsulfonylamino)-4,5-dimethoxy-N-(4-(thiomorpholine-4-sulfonyl)phenyl)benzamide]
